Measurements reported in article PMC10977697 (PLOS ONE, 2024).
Where no end group is shown, it is not given here.

What follows are sequences tested on PCSK9 (assay: not given). Conditions: spot phage ELISA signal-to-noise on PCSK9.
Assay type: binding, human

Sequence | S/N
GCGSHFAPWFGCKQDSDCLSWLCLYAADGLW (disulfide (positions not given here)) [PCSK9 EET I-II 5] | 18.1
GCGWWYRQWFCKQDSDCLAGCVCLETPECG (disulfide (positions not given here)) [PCSK9 EET I-II 16] | 15.7
GCGYWFIQWFCKQDSDCLAGCVCGPNGFCG (disulfide (positions not given here)) [PCSK9 EET I-II 1] | 21.8
GCGYWFKMWFCKQDSDCLAGCVCYPGASCG (disulfide (positions not given here)) [PCSK9 EET I-II 8] | 9.7
GCGYWFKMWFCKQDSDCLAGCVCYPGASCG (disulfide (positions not given here)) [PCSK9 EET I-II 12] | 15.5

These sequences were tested on CD16A (assay: Spot phage ELISA, CD16A). Conditions: spot phage ELISA signal-to-noise on CD16A.
Assay type: binding, human

Sequence | S/N
GCADTPWKGKCKQDSDCLAGCVCGPNGFCG (disulfide (positions not given here)) [CD16A EETI-II 20] | 15.6
GCADTPWQGRCKQDSDCLAGCVCGPNGFCG (disulfide (positions not given here)) [CD16A EETI-II 21] | 25.5
GCAKDPWGQPMSCKQDSDCLAGCVCGPNGFC (disulfide (positions not given here)) [CD16A EETI-II 27] | 20.7
GCAVDPWGKQMTCKQDSDCLAGCVCGPNGFC (disulfide (positions not given here)) [CD16A EETI-II 33] | 19.5
GCDAILWTCKQDSDCLAGCVCSEEDLCG (disulfide (positions not given here)) [CD16A EETI-II 7] | 18.7
GCDAKLQQCKQDSDCLAGCVCEEAVICG (disulfide (positions not given here)) [CD16A EETI-II 2] | 22.9
GCDDILRACKQDSDCLAGCVCEEETLCG (disulfide (positions not given here)) [CD16A EETI-II 6] | 19.9
GCDDILRACKQDSDCLAGCVCEEETLCG (disulfide (positions not given here)) [CD16A EETI-II 9] | 17.8
GCDDPWGGEMCKQDSDCLAGCVCGPNGFCG (disulfide (positions not given here)) [CD16A EETI-II 16] | 23.6
GCDDPWGMAMPCKQDSDCLAGCVCGPNGFCG (disulfide (positions not given here)) [CD16A EETI-II 17] | 23.4
GCDEILHKCKQDSDCLAGCVCDEQQLCG (disulfide (positions not given here)) [CD16A EETI-II 10] | 17.2
GCDEMLYRCKQDSDCLAGCVCQEQDVCG (disulfide (positions not given here)) [CD16A EETI-II 5] | 20.0
GCDMPSWDNVWPCKQDSDCLAGCVCGPNGFC (disulfide (positions not given here)) [CD16A EETI-II 28] | 19.8
GCDSLLQRCKQDSDCLAGCVCTEEHLCG (disulfide (positions not given here)) [CD16A EETI-II 11] | 16.8
GCDWLEVECKQDSDCLAGCVCLISPYCG (disulfide (positions not given here)) [CD16A EETI-II 39] | 16.3
GCDYKLWRCKQDSDCLAGCVCEESQVCG (disulfide (positions not given here)) [CD16A EETI-II 3] | 21.6
GCDYKLWRCKQDSDCLAGCVCEESQVCG (disulfide (positions not given here)) [CD16A EETI-II 8] | 18.2
GCEWMAIPCKQDSDCLAGCVCWESPYCG (disulfide (positions not given here)) [CD16A EETI-II 40] | 20.1
GCGQAAVPCKQDSDCLAGCVCDPWGWCD (disulfide (positions not given here)) [CD16A EETI-II 29] | 23.7
GCGSKNGMNMCKQDSDCLAGCVCDPWGQCD (disulfide (positions not given here)) [CD16A EETI-II 31] | 15.5
GCIATVDHCKQDSDCLAGCVCEPFHVCG (disulfide (positions not given here)) [CD16A EETI-II 4] | 20.2
GCIETIDHCKQDSDCLAGCVCQPMRRCG (disulfide (positions not given here)) [CD16A EETI-II 13] | 20.1
GCMDTPWKGACKQDSDCLAGCVCGPNGFCG (disulfide (positions not given here)) [CD16A EETI-II 19] | 18.2
GCPRILMRCKQDPDCLAGCVCDEEQLCG (disulfide (positions not given here)) [CD16A EETI-II 1] | 25.4
GCPRILMRCKQDSDCLAGYVCDPWGVCD (disulfide (positions not given here)) [CD16A EETI-II 30] | 23.2
GCPWWWVVSCKQDSDCLAGCVCYLQENCG (disulfide (positions not given here)) [CD16A EETI-II 14] | 17.8
GCPWWWVVSCKQDSDCLAGCVCYLQENCG (disulfide (positions not given here)) [CD16A EETI-II 43] | 16.5
GCQDPWGEAMQCKQDSDCLAGCVCGPNGFCG (disulfide (positions not given here)) [CD16A EETI-II 15] | 25.7

Sequence | S/N
GCQFMKTECKQDSDCLAGCVCYESPWCG (disulfide (positions not given here)) [CD16A EETI-II 22] | 19.0
GCQVDPWGHQMDCKQDSDCLAGCVCGPNGFC (disulfide (positions not given here)) [CD16A EETI-II 32] | 22.9
GCQWAQLSWDHCKQDSDCLAGCVCWQSPYCG (disulfide (positions not given here)) [CD16A EETI-II 35] | 16.7
GCQWDPWGVQMNCKQDSDCLAGCVCGPNGFC (disulfide (positions not given here)) [CD16A EETI-II 34] | 19.6
GCQWHEMTCKQDSDCLAGCVCWESPWCG (disulfide (positions not given here)) [CD16A EETI-II 36] | 15.9
GCQWIQQPCKQDSDCLAGCVCHESPWCG (disulfide (positions not given here)) [CD16A EETI-II 38] | 17.4
GCQWIQVNCKQDSDCLAGCVCWVSPYCG (disulfide (positions not given here)) [CD16A EETI-II 37] | 5.8
GCQWQVEECKQDSDCLAGCVCWHSPYCG (disulfide (positions not given here)) [CD16A EETI-II 41] | 18.8
GCQWVQMTCKQDSDCLAGCVCWHSPWCG (disulfide (positions not given here)) [CD16A EETI-II 42] | 17.3
GCQYIETECKQDSDCLAGCVCWVSPWCG (disulfide (positions not given here)) [CD16A EETI-II 44] | 20.5
GCRGIDWWPCKQDSDCLTGCVCGPNGFCG (disulfide (positions not given here)) [CD16A EETI-II 24] | 11.1
GCSGNAMNCKQDSDCLAGCVCDPWGKCD (disulfide (positions not given here)) [CD16A EETI-II 25] | 19.7
GCVETYVDCKQDSDCLAGCVCEPVQYCG (disulfide (positions not given here)) [CD16A EETI-II 12] | 18.5
GCWDPWGPMSCKQDSDCLAGCVCGPNGFCG (disulfide (positions not given here)) [CD16A EETI-II 18] | 12.9
GCWGFPFPMDCKQDSDCLAGCVCFLWDKCG (disulfide (positions not given here)) [CD16A EETI-II 23] | 19.5
GCWGPWGPEHCKQDSDCLAGCVCGPNGFCG (disulfide (positions not given here)) [CD16A EETI-II 26] | 18.3
GPTQSEGGQCGGIGYSGPTVCASGTTCQVLGPMWSFCLPGAS (disulfide (positions not given here)) [CD16A CBD 10] | 5.9
GPTQSEGGQCGGIGYSGPTVCASGTTCQVLGPSWSFCLPGAS (disulfide (positions not given here)) [CD16A CBD 11] | 4.9
GPTQSEGGSCGGIGYSGPTVCASGTTCQVLGPYISLCLPGAS (disulfide (positions not given here)) [CD16A CBD 2] | 18.5
GPTQSEGGSCGGIGYSGPTVCASGTTCQVLNPYMSACLPGAS (disulfide (positions not given here)) [CD16A CBD 7] | 14.8
GPTQSHGGSCGGIGYSGPTVCASGTTCQVLNPYLSLCLPGAS (disulfide (positions not given here)) [CD16A CBD 3] | 17.5
GPTQSHYGQCGGLGYFGQWFCSGTTCQMMSPYGSQCLPGAST (disulfide (positions not given here)) [CD16A CBD 9] | 8.3
GPTQSMGGSCGGIGYSGPTVCASGTTCQVLDPYISMCLPGAS (disulfide (positions not given here)) [CD16A CBD 5] | 16.5
GPTQSPEGSCGGIGYSGPTVCASGTTCQVLNPYLSLCLPGAS (disulfide (positions not given here)) [CD16A CBD 8] | 14.2
GPTQSPXGSCGGIGYSGPTVCASGTTCQVLNPYLSQCLPGAS (disulfide) [CD16A CBD 4] | 16.8
GPTQSVWGSCGGIGYSGPTVCASGTTCQVLNPYMSACLPGAS (disulfide (positions not given here)) [CD16A CBD 1] | 21.0
GPTQSWDGQCGGIGYSGPTVCASGTTCQVLSPYLSYCLPGAS (disulfide (positions not given here)) [CD16A CBD 6] | 15.7

Each sequence was assayed on EpCAM (assay: Spot phage ELISA, EpCAM). Conditions: spot phage ELISA signal-to-noise on EpCAM.
Assay type: binding, human

Sequence | S/N
GPTQSIYGVCGGIGYVGGRYCSGTTCQIPEKYKSQCLPGAS (disulfide (positions not given here)) [EpCAM CBD 45] | 11.1
GPTQSLPGFCGGIGYVGGRYCSGTTCQLPEKLKSQCLPGAS (disulfide (positions not given here)) [EpCAM CBD 1] | 26.7
GPTQSVIGPCGGIGYVGGRYCSGTTCQMPTSYRSQCLPGAS (disulfide (positions not given here)) [EpCAM CBD 35] | 14.4
